Test results taken from ChEMBL document CHEMBL1201862, “PubChem BioAssay data set” (2004).
One block for each molecule: values may come before it. Calls of active or inactive are those of the source.

How the values were obtained:
[1] = target: T1, E3 ubiquitin-protein ligase XIAP (Homo sapiens, UniProt P98170); experiment: Counter Screen using XIAP-Bir3 for Chemical Antagonists of Bir1/2 domains of IAP-family anti-apoptotic proteins. [Related pubchem assays (depositor defined):AID1018, AID1449, AID1514, AID1638, AID1749, AID1750, AID488957, AID488963]
[2] = target: T1, E3 ubiquitin-protein ligase XIAP; experiment: small molecules displacing peptide from XIAP – biochemical, IAP family, fluorescence polarization (AID 1018); type: functional
Troponin, cardiac muscle = Troponin, cardiac muscle (Homo sapiens, UniProt P19429+P45379+P63316); experiment: Fluorescence-based biochemical high throughput dose response assay for activators of the calcium sensitivity of cardiac Regulated Thin Filaments (RTF). [Related pubchem assays (depositor defined):AID493008, AID493018, AID504382, AID504383]; type: protein-complex assay
HEK293 [3] = experiment: NOD2 signaling inhibitors in MDP-stimulated cells, cell-based, uHTS, luminescence (AID 2001); type: functional; details: Homo sapiens
HEK293 [4] = experiment: cells; type: functional, cell-based; details: Homo sapiens
H9c2 = experiment: cells; type: functional, cell-based; details: Rattus norvegicus, H9c2, Myocardium;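 also: confirmatory concentration-response retest of ultra-high-throughput screening hits for modulation of myocardial damage; cell death induced by hydrogen peroxide oxidative stress; compound pretreatment for 60 min then peroxide exposure for 2 h; potency is for protecting the cells against peroxide damage rather than for killing them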
HEK293 [5] = experiment: cells; type: functional, cell-based; details: Homo sapiens; remark: listed apart in the source
HEK293 [6] = experiment: inhibition of NOD1-driven NF-kB reporter – cell-based, luminescence, uHTS, primary screen (AID 1578); type: functional; details: Homo sapiens
[7] = target: Nucleotide-binding oligomerization domain-containing protein 2 (Homo sapiens, UniProt Q9HC29); experiment: inhibition of NOD2-driven NF-kB reporter – cell-based, luminescence, uHTS, HEK293 (AID 1566); type: functional
HEK293 [8] = experiment: cells; type: functional, cell-based; details: Homo sapiens; remark: listed apart in the source

- IC50 [1]: > 100 µM (inactive)
- IC50 [2]: > 100 µM (not active)
Structure (SMILES): N#Cc1ccccc1CSc1nc2cc(Br)c[nH]c-2n1

- EC50 (Troponin, cardiac muscle): > 71.5 µM (inactive)
Structure (SMILES): O=C(O)c1ncc(-c2ccccc2)cn1

Structure (SMILES): Cc1nc(N2CCN(c3ccccn3)CC2)c2c(C)c(C(=O)Nc3ccccc3F)sc2n1
- IC50 (HEK293 [3]): 5.23 µM (active)
- IC50 (HEK293 [4]): > 20 µM (inactive)
- IC50 (H9c2): > 79 µM (inactive)
- IC50 (HEK293 [5]): 5.78 µM (active)
- EC50 (HEK293 [6]): 12.4 µM (active)
- EC50 [7]: 3.56 µM (active)
- IC50 (HEK293 [8]): 14.3 µM (active)

- EC50 (Troponin, cardiac muscle): > 71.5 µM (inactive)
Structure (SMILES): O=C(Nc1ccccc1-c1ccccc1)c1ccc(Cl)c([N+](=O)[O-])c1
